# Literature values, collected in paper PMC3971013 (Journal of natural products, 2013).
# Non-standard residues stand in square brackets, D forms with d. Residues, ends and D or L forms follow the SMILES beside them. *: point of attachment. Octanoyl(2R-Me,7,8-dehydro) = C=CCCCC[C@@H](C)C(=O)*; Oct7ynoyl(2R-Me) = C#CCCCC[C@@H](C)C(=O)*; NMeF = CN[C@@H](Cc1ccccc1)C(=O)O; X4 = CC(=O)CCCC[C@@H](C)C(=O)*; Oct(7)enoyl = C=CCCCCCC(=O)*; Oct(7)ynoyl = C#CCCCCCC(=O)*; NMeV = CN[C@H](C(=O)O)C(C)C; Hept6ynoyl = C#CCCCCC(=O)*; NMeA = CN[C@@H](C)C(=O)O; X3 = C=CCCCCC(=O)*
# System: Vero Cells
# Conditions: not given
row,Compound,LD50 Vero Cells [µM]
1,"C=CCCCC[C@@H](C)C(=O)N(C)[C@H](C(=O)N(C)[C@H](C(=O)N[C@H](C(=O)N(C)[C@@H](C)C(=O)N(C)[C@@H](Cc1ccccc1)C(N)=O)C(C)C)C(C)C)C(C)C [Almiramide C (9), Almiramide C] ({Octanoyl(2R-Me,7,8-dehydro)}-[NMeV][NMeV]V[NMeA][NMeF]-NH2)",33.1
2,C#CCCCCC(=O)N(C)[C@H](C(=O)N(C)[C@H](C(=O)N(C)[C@H](C(=O)N(C)[C@@H](C)C(=O)N(C)[C@@H](Cc1ccccc1)C(=O)N(C)C)C(C)C)C(C)C)C(C)C [Compound 10] (Hept6ynoyl-[NMeV][NMeV][NMeV][NMeA][NMeF]-NMe2),155.7
3,C=CCCCCC(=O)N(C)[C@H](C(=O)N(C)[C@H](C(=O)N(C)[C@H](C(=O)N(C)[C@@H](C)C(=O)N(C)[C@@H](Cc1ccccc1)C(=O)N(C)C)C(C)C)C(C)C)C(C)C [Compound 11] (X3-[NMeV][NMeV][NMeV][NMeA][NMeF]-NMe2),93.1
4,C=CCCCCCC(=O)N(C)[C@H](C(=O)N(C)[C@H](C(=O)N(C)[C@H](C(=O)N(C)[C@@H](C)C(=O)N(C)[C@@H](Cc1ccccc1)C(=O)N(C)C)C(C)C)C(C)C)C(C)C [Compound 13] ({Oct(7)enoyl}-[NMeV][NMeV][NMeV][NMeA][NMeF]-NMe2),23.8
5,C=CCCCCC(=O)N(C)[C@H](C(=O)N(C)[C@H](C(=O)N(C)[C@H](C(=O)N(C)[C@@H](C)C(=O)N(C)[C@@H](Cc1ccccc1)C(=O)O)C(C)C)C(C)C)C(C)C [Compound 15] (X3-[NMeV][NMeV][NMeV][NMeA][NMeF]-OH),>70.0
6,C=CCCCCCC(=O)N(C)[C@H](C(=O)N(C)[C@H](C(=O)N(C)[C@H](C(=O)N(C)[C@@H](C)C(=O)N(C)[C@@H](Cc1ccccc1)C(=O)O)C(C)C)C(C)C)C(C)C [Compound 17] ({Oct(7)enoyl}-[NMeV][NMeV][NMeV][NMeA][NMeF]-OH),192.4
7,C=CCCCCC(=O)N(C)[C@H](C(=O)N(C)[C@H](C(=O)N(C)[C@H](C(=O)N(C)[C@@H](C)C(=O)N(C)[C@@H](Cc1ccccc1)C(=O)OC)C(C)C)C(C)C)C(C)C [Compound 19] (X3-[NMeV][NMeV][NMeV][NMeA][NMeF]-OMe),24.7
8,C=CCCCCCC(=O)N(C)[C@H](C(=O)N(C)[C@H](C(=O)N(C)[C@H](C(=O)N(C)[C@@H](C)C(=O)N(C)[C@@H](Cc1ccccc1)C(=O)OC)C(C)C)C(C)C)C(C)C [Compound 21] ({Oct(7)enoyl}-[NMeV][NMeV][NMeV][NMeA][NMeF]-OMe),18.8

# Same assay, conditions: previously reported LD50 values
row,Compound,LD50 Vero Cells [µM]
1,"CC(=O)CCCC[C@@H](C)C(=O)N(C)[C@H](C(=O)N(C)[C@H](C(=O)N[C@H](C(=O)N(C)[C@@H](C)C(=O)N(C)[C@@H](Cc1ccccc1)C(N)=O)C(C)C)C(C)C)C(C)C [Almiramide A (7), Almiramide A] (X4-[NMeV][NMeV]V[NMeA][NMeF]-NH2)",113.1
2,"C#CCCCC[C@@H](C)C(=O)N(C)[C@H](C(=O)N(C)[C@H](C(=O)N[C@H](C(=O)N(C)[C@@H](C)C(=O)N(C)[C@@H](Cc1ccccc1)C(N)=O)C(C)C)C(C)C)C(C)C [Almiramide B (8), Almiramide B] ({Oct7ynoyl(2R-Me)}-[NMeV][NMeV]V[NMeA][NMeF]-NH2)",52.3
3,C#CCCCCCC(=O)N(C)[C@H](C(=O)N(C)[C@H](C(=O)N(C)[C@H](C(=O)N(C)[C@@H](C)C(=O)N(C)[C@@H](Cc1ccccc1)C(=O)N(C)C)C(C)C)C(C)C)C(C)C [Compound 12] ({Oct(7)ynoyl}-[NMeV][NMeV][NMeV][NMeA][NMeF]-NMe2),159.4
4,C#CCCCCC(=O)N(C)[C@H](C(=O)N(C)[C@H](C(=O)N(C)[C@H](C(=O)N(C)[C@@H](C)C(=O)N(C)[C@@H](Cc1ccccc1)C(=O)O)C(C)C)C(C)C)C(C)C [Compound 14] (Hept6ynoyl-[NMeV][NMeV][NMeV][NMeA][NMeF]-OH),281.1
5,C#CCCCCCC(=O)N(C)[C@H](C(=O)N(C)[C@H](C(=O)N(C)[C@H](C(=O)N(C)[C@@H](C)C(=O)N(C)[C@@H](Cc1ccccc1)C(=O)O)C(C)C)C(C)C)C(C)C [Compound 16] ({Oct(7)ynoyl}-[NMeV][NMeV][NMeV][NMeA][NMeF]-OH),>68.9
6,C#CCCCCC(=O)N(C)[C@H](C(=O)N(C)[C@H](C(=O)N(C)[C@H](C(=O)N(C)[C@@H](C)C(=O)N(C)[C@@H](Cc1ccccc1)C(=O)OC)C(C)C)C(C)C)C(C)C [Compound 18] (Hept6ynoyl-[NMeV][NMeV][NMeV][NMeA][NMeF]-OMe),41.4
7,C#CCCCCCC(=O)N(C)[C@H](C(=O)N(C)[C@H](C(=O)N(C)[C@H](C(=O)N(C)[C@@H](C)C(=O)N(C)[C@@H](Cc1ccccc1)C(=O)OC)C(C)C)C(C)C)C(C)C [Compound 20] ({Oct(7)ynoyl}-[NMeV][NMeV][NMeV][NMeA][NMeF]-OMe),27.0
